Experimental data as given in US10792274B2, “Dehydroacetic acid (DHAA) and derivative for uses in treating cancer” (Emory University, priority 2016, dated 2020).
“Also recorded” adds a separate entry of the source.

Key:
BRAF V600E [1] = biological target: T1, BRAF V600E (Homo sapiens, UniProt P15056, V600E); experiment: thermal melt shift assay, purified recombinant protein; assay type: binding
Protocol: Arrows in the panel indicate melting temperatures at 0 μM (left) and 400 μM (right).
(§1) Whether functional inhibition of acetoacetate would attenuate BRAF V600E tumor growth was examined. Dehydroacetic acid (DHAA) (FIG. 4A) is an inhibitory homologue of acetoacetate.

BRAF V600D = BRAF V600D (Homo sapiens, UniProt P15056, V600D); experiment: 14C-labeled acetoacetate binding assay; conditions: in the presence of 300 μM 14C-labeled acetoacetate
Sequence of BRAF V600D (P15056 whole entry V600D): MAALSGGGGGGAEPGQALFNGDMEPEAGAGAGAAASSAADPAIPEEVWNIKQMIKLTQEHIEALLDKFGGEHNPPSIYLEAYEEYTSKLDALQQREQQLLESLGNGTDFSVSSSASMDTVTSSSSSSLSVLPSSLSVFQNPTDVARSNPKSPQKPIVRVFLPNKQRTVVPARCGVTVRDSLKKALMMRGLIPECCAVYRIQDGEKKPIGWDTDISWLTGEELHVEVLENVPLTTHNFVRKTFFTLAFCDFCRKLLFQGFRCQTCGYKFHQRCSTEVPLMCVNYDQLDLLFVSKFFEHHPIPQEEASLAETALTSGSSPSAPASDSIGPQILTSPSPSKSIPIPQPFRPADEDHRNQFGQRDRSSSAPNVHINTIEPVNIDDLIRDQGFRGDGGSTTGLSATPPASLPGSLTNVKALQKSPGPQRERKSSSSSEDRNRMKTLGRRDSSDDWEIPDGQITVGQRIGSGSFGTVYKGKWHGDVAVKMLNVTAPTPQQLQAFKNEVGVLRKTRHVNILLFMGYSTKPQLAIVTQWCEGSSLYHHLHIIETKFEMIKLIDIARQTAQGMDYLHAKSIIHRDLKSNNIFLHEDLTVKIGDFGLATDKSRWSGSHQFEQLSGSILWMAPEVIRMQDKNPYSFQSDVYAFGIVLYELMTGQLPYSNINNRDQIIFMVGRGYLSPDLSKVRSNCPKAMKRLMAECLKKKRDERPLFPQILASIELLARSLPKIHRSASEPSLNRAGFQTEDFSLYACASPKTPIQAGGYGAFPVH
Protocol: (§2) BRAF wild type and mutant proteins were incubated with increasing concentrations of ^14C-labeled acetoacetate.
(§3) A series of radiometric metabolite-protein interaction analyses were performed using ^14C labeled acetoacetate incubated with purified BRAF variants in the presence and absence of DHAA.

BRAF V600R = BRAF V600R (Homo sapiens, UniProt P15056, V600R); experiment: 14C-labeled acetoacetate binding assay; conditions: in the presence of 300 μM 14C-labeled acetoacetate
Sequence of BRAF V600R (P15056 whole entry V600R): as the sequence (P15056 whole entry V600D) above, with D600R counted along it
Protocol: as §2, §3

BRAF V600E [2] = biological target: T1, BRAF V600E; experiment: BRAF V600E kinase activity (Vmax and Km), MEK1 as substrate; assay type: biochemical
Protocol: (§4) Whether DHAA inhibits BRAF V600E directly was examined. […] In contrast, DHAA had no effect on BRAF WT-MEK1 binding or MEK1 phosphorylation in a control experiment using purified BRAF WT incubated with MEK1 in the presence of acetoacetate (FIG. 4I left panel). […] This is physiologically consistent with the acetoacetate levels determined as approximately 300 μM in stable HMGCL knockdown A375 and A2058 cells.

[3] = system: BRAF V600E-expressing human melanoma A2058 cells; experiment: A2058 xenograft in nude mice; assay type: in vivo
Excerpt: Xenograft tumor growth and in nude mice inoculated with BRAF V600E-positive human melanoma A2058 fed with normal or high-fat diets followed by intraperitoneal injection with DHAA.

[4] = system: WM-266-4 cells expressing BRAF V600D; experiment: melanoma cell proliferation; assay type: cell-based
[5] = system: SK-MEL-5 cells expressing BRAF V600E; experiment: melanoma cell proliferation; assay type: cell-based
[6] = system: A375 cells expressing BRAF V600E; experiment: melanoma cell treatment: proliferation, MEK1/ERK1/2 phosphorylation, BRAF-MEK1 binding; assay type: cell-based, human
[7] = system: A2058 cells expressing BRAF V600E; experiment: as above; assay type: cell-based, human
[8] = serum and tumor metabolite levels and body weight of xenograft mice; assay type: in vivo
FLAG-tagged BRAF V600E = biological target: T2, FLAG-tagged BRAF V600E (Homo sapiens, UniProt P15056, V600E); experiment: cellular thermal shift assay, lysates of transfected 293T cells; assay type: binding; conditions: 400 μM
T2 construct: FLAG; expressed in transfected cells; host or cells: 293T cells (lysates)
T2 sequence (P15056 whole entry V600E): as the sequence (P15056 whole entry V600D) above, with D600E counted along it
Excerpt: as §1

BRAF V600E [9] = biological target: T1, BRAF V600E; experiment: 14C-labeled acetoacetate binding assay (radiometric metabolite-protein interaction)
Protocol: as §2, §3

[10] = system: Me1-ST cells expressing BRAF V600E; experiment: immortalized melanocyte treatment: proliferation, MEK-ERK activation, BRAF-MEK1 binding; assay type: cell-based
[11] = chronic injection of DHAA to nude mice (tolerability); assay type: in vivo
[12] = system: Me1-ST parental or control cells expressing BRAF WT or tBRAF; experiment: immortalized melanocyte treatment: proliferation, MEK-ERK activation, BRAF-MEK1 binding; assay type: cell-based
hepatomas = conditions: rats fed 4-(methylamino)azobenzene; cited from earlier work
BRAF V600E-MEK1 binding = BRAF V600E-MEK1 binding (Homo sapiens, UniProt P15056, V600E); experiment: cell-free in vitro coupled protein-protein binding and kinase assay; assay type: biochemical
Sequence of BRAF V600E-MEK1 binding (P15056 whole entry V600E): as the sequence (P15056 whole entry V600D) above, with D600E counted along it
Protocol: as §4

BRAF WT-MEK1 binding = BRAF WT-MEK1 binding (Homo sapiens, UniProt P15056); experiment: as above; assay type: biochemical; conditions: in the presence of acetoacetate
Sequence of BRAF WT-MEK1 binding (P15056 whole entry): as the sequence (P15056 whole entry V600D) above, with D600V counted along it
Protocol: as §4

[13] = system: BRAF V600E-expressing human melanoma A375 cells; experiment: A375 xenograft in nude mice; assay type: in vivo
[14] = co-treatment with DHAA, high-fat diet
[15] = tumors harvested from xenograft mice
[16] = DHAA at 200 μM, acetoacetate at 300 μM
[17] = BRAF V600E pre-treated with acetoacetate (300 μM)

T1 sequence (P15056 whole entry V600E): as the sequence (P15056 whole entry V600D) above, with D600E counted along it

CC(=O)c1c(O)oc(C)cc1=O [DHAA, 3-Acetyl-2-hydroxy-6-methyl-4H-pyran-4-one]
binding in thermal melt shift assay (BRAF V600E [1]): directly binds | Ki (BRAF V600D): ~88 µM | Ki (BRAF V600R): ~91 µM | activating effect of acetoacetate on BRAF V600E (increased Vmax, decreased Km) (BRAF V600E [2]; in the presence of acetoacetate (300 μM)): effectively reversed the activating effect of acetoacetate | BRAF V600E kinase activity (Vmax and Km) (BRAF V600E [2]; increasing concentrations of DHAA alone): did not affect BRAF V600E kinase activity | high-fat diet-dependent enhancement of BRAF V600E-MEK1 binding in tumors ([3]; DHAA, high-fat diet): significantly attenuated | high-fat diet-dependent enhancement of cell proliferation rates (Ki67) in tumors ([3]; DHAA, high-fat diet): significantly attenuated | high-fat diet-dependent enhancement of phosphorylation of MEK1 and ERK1/2 in tumors ([3]; DHAA, high-fat diet): significantly attenuated | high-fat diet-enhanced tumor growth potential [3, 14]: effectively reversed the enhanced tumor growth potential; also recorded: reverses high-fat diet-enhanced BRAF V600E tumor growth | HMGCL expression in tumors ([3]; mouse, in vivo): without affecting HMGCL expression | BRAF V600E-MEK1 binding in tumors ([3]; single agent): reduced binding between BRAF V600E-MEK1 | cell proliferation rates in tumors (Ki67 IHC staining) ([3]; single agent): reduced cell proliferation rates | phosphorylation of MEK1 and ERK1/2 in tumors ([3]; single agent): selectively inhibited phosphorylation of MEK1 and ERK1/2 | xenograft tumor growth (growth rates, sizes, masses) ([3]; single agent, normal diet): effectively inhibited xenograft tumor growth rates, sizes and masses | cell proliferation [4]: selectively inhibited cell proliferation | cell proliferation [5]: selectively inhibited cell proliferation | BRAF V600E-MEK1 association [6]: selectively inhibited | cell proliferation [6]: selectively inhibited cell proliferation; also recorded: selectively inhibits | phosphorylation of MEK1 and ERK1/2 [6]: selectively inhibited phosphorylation of MEK1 and ERK1/2 | BRAF V600E-MEK1 association [7]: selectively inhibited | cell proliferation [7]: selectively inhibited cell proliferation; also recorded: selectively inhibits | phosphorylation of MEK1 and ERK1/2 [7]: selectively inhibited phosphorylation of MEK1 and ERK1/2 | body weight ([8]; effect of treatment): did not affect body weight | serum cholesterol levels ([8]; effect of treatment): did not affect; also recorded: had no effect | serum glucose levels ([8]; effect of treatment): did not affect; also recorded: had no effect | serum levels of 3HB (β-hydroxybutyrate) ([8]; effect of treatment): did not affect; also recorded: had no effect | serum levels of acetoacetate ([8]; effect of treatment): had no effect | acetoacetate levels in tumors [8, 15]: did not affect | β-hydroxybutyrate levels in tumors [8, 15]: did not affect | affinity for BRAF V600E relative to acetoacetate (FLAG-tagged BRAF V600E): higher affinity than acetoacetate | binding in cellular thermal shift assay (FLAG-tagged BRAF V600E): bound only to BRAF V600E | competition with acetoacetate for BRAF V600E binding (BRAF V600E [9]; BRAF V600E pre-treated with 14C-labeled acetoacetate, increasing concentrations of DHAA): competed with acetoacetate for BRAF V600E binding in a dose-dependent manner | block of acetoacetate binding by pre-treatment (BRAF V600E [9]; DHAA 200 μM pre-treatment, 14C-labeled acetoacetate up to 400 μM): sufficient to block acetoacetate binding | competition with acetoacetate for BRAF V600E binding (BRAF V600E [9]; [16]): sufficient to compete | Ki (BRAF V600E [9]; in the presence of 300 μM 14C-labeled acetoacetate): ~88 µM | binding ability of BRAF V600E mutant forms to acetoacetate (BRAF V600E [9]; treatment with DHAA, BRAF V600E and tBRAF V600E): significant decrease in binding ability | BRAF V600E-MEK1 binding [10]: selectively inhibited | MEK-ERK activation [10]: selectively inhibited | cell proliferation [10]: selectively inhibited | histopathological analyses and weights of diverse organs ([11]; 200 mg/kg/day intraperitoneally, ~4 weeks): did not cause notable differences | components of the gut microbiota ([11]; chronic treatment): altered proportions but no loss of any components | effect on the mouse gut microbiome ([11]; chronic treatment): had no obvious effect | total DNA amount extracted from bacteria in mouse feces ([11]; chronic treatment): unaltered total DNA amount | well-tolerated dose ([11]; intraperitoneally, ~4 weeks): 200 mg/kg/day | toxicity in vivo ([11]; mouse, in vivo): does not cause obvious toxicity in vivo | complete blood counts (CBC) or hematopoietic properties ([11]; representative A375 xenograft mice, compared to the water-treated group): did not alter | BRAF-MEK1 binding [12]: but not parental or control cells | induction of hepatomas (hepatomas): inhibitory effect | acetoacetate-enhanced MEK1 binding to BRAF V600E (BRAF V600E-MEK1 binding; [17]): effectively inhibited | phosphorylation of V600E-bound MEK1 (BRAF V600E-MEK1 binding; [17]): effectively inhibited | BRAF V600E-MEK1 binding and phosphorylation of MEK1 enhanced by acetoacetate (BRAF V600E-MEK1 binding; [16]): inhibit BRAF V600E-MEK1 binding and phosphorylation of MEK1 | BRAF WT-MEK1 binding (BRAF WT-MEK1 binding): had no effect | MEK1 phosphorylation (BRAF WT-MEK1 binding): had no effect | high-fat diet-dependent enhancement of BRAF V600E-MEK1 binding in tumors ([13]; DHAA, high-fat diet): significantly attenuated | high-fat diet-dependent enhancement of cell proliferation rates (Ki67) in tumors ([13]; DHAA, high-fat diet): significantly attenuated | high-fat diet-dependent enhancement of phosphorylation of MEK1 and ERK1/2 in tumors ([13]; DHAA, high-fat diet): significantly attenuated | high-fat diet-enhanced tumor growth potential [13, 14]: effectively reversed the enhanced tumor growth potential | HMGCL expression in tumors ([13]; mouse, in vivo): without affecting HMGCL expression | BRAF V600E-MEK1 binding in tumors ([13]; single agent): reduced binding between BRAF V600E-MEK1 | cell proliferation rates in tumors (Ki67 IHC staining) ([13]; single agent): reduced cell proliferation rates | phosphorylation of MEK1 and ERK1/2 in tumors ([13]; single agent): selectively inhibited phosphorylation of MEK1 and ERK1/2 | xenograft tumor growth (growth rates, sizes, masses) ([13]; single agent, normal diet): effectively inhibited xenograft tumor growth rates, sizes and masses
